Experiments:
Format in all cases: in vivo
common ragweed [1] = assay: Test Example 3: herbicidal effects in soil treatment; conditions: dose 3.2 g/a
Summary of the method: (§1)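 Seeds were sown in sterilized diluvial soil and covered with about 1.5 cm of soil. Compounds, formulated as emulsifiable concentrates and diluted with water, were sprayed evenly over the soil surface at set doses in g/a. Herbicidal effect was scored on a rating scale three weeks later.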

water foxtail [2] = assay: as above; conditions: dose 3.2 g/a
Summary of the method: as §1

common chickweed [3] = assay: as above; conditions: dose 3.2 g/a
Summary of the method: as §1

barnyardgrass [4] = assay: as above; conditions: dose 3.2 g/a
Summary of the method: as §1

beadstraw [5] = assay: as above; conditions: dose 3.2 g/a
Summary of the method: as §1

Italian ryegrass [6] = assay: as above; conditions: dose 3.2 g/a
Summary of the method: as §1

large crabgrass [7] = assay: as above; conditions: dose 3.2 g/a
Summary of the method: as §1

velvetleaf [8] = assay: as above; conditions: dose 3.2 g/a
Summary of the method: as §1

redroot pigweed [9] = assay: as above; conditions: dose 3.2 g/a
Summary of the method: as §1

common lambsquater [10] = assay: as above; conditions: dose 3.2 g/a
Summary of the method: as §1

wild oat [11] = assay: as above; conditions: dose 3.2 g/a
Summary of the method: as §1

giant foxtail [12] = assay: as above; conditions: dose 3.2 g/a
Summary of the method: as §1

posumbu knotweed [13] = assay: as above; conditions: dose 3.2 g/a
Summary of the method: as §1

barnyardgrass [14] = assay: Test Example 2: herbicidal effects during the vegetation period under submerged conditions; conditions: treatment during the vegetation period under submerged conditions; dose 2.52 g/a
Summary of the method: (§2)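 Barnyardgrass, bulrush and ducksalad were co-sown in alluvial soil flooded to 4 cm and grown in a greenhouse at 25 to 30° C. At the 1- or 2-leaf stage, water-diluted emulsifiable concentrates went onto the water surface at set doses (g/a). Herbicidal effect was scored three weeks later on a graded scale.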

bulrush [15] = assay: as above; conditions: treatment during the vegetation period under submerged conditions; dose 2.52 g/a
Summary of the method: as §2

ducksalad [16] = assay: as above; conditions: treatment during the vegetation period under submerged conditions; dose 2.52 g/a
Summary of the method: as §2

barnyardgrass [17] = assay: Test Example 1: herbicidal effects in preemergence treatment under submerged conditions; conditions: dose 2.52 g/a
Summary of the method: (§3)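 Flooded-paddy preemergence assay; EC diluted with water, surface-applied at weed seeding; doses g/a; rice transplanted at 2.5 leaves; 0–5 mortality score after 3 weeks.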

bulrush [18] = assay: as above; conditions: dose 2.52 g/a
Summary of the method: as §3

ducksalad [19] = assay: as above; conditions: dose 2.52 g/a
Summary of the method: as §3

common ragweed [20] = assay: Test Example 4: herbicidal effect in foliage treatment; conditions: dose 3.2 g/a, three weeks after the application
Summary of the method: (§4)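 Visual herbicidal scores on a graded scale were recorded three weeks after foliar application. Compounds went on as diluted emulsifiable concentrates at predetermined g/a to plants grown 14 days in a 25 to 30° C greenhouse.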

water foxtail [21] = assay: as above; conditions: dose 3.2 g/a, three weeks after the application
Summary of the method: as §4

common chickweed [22] = assay: as above; conditions: dose 3.2 g/a, three weeks after the application
Summary of the method: as §4

barnyardgrass [23] = assay: as above; conditions: dose 3.2 g/a, three weeks after the application
Summary of the method: as §4

beadstraw [24] = assay: as above; conditions: dose 3.2 g/a, three weeks after the application
Summary of the method: as §4

Italian ryegrass [25] = assay: as above; conditions: dose 3.2 g/a, three weeks after the application
Summary of the method: as §4

large crabgrass [26] = assay: as above; conditions: dose 3.2 g/a, three weeks after the application
Summary of the method: as §4

velvetleaf [27] = assay: as above; conditions: dose 3.2 g/a, three weeks after the application
Summary of the method: as §4

redroot pigweed [28] = assay: as above; conditions: dose 3.2 g/a, three weeks after the application
Summary of the method: as §4

common lambsquater [29] = assay: as above; conditions: dose 3.2 g/a, three weeks after the application
Summary of the method: as §4

wild oat [30] = assay: as above; conditions: dose 3.2 g/a, three weeks after the application
Summary of the method: as §4

giant foxtail [31] = assay: as above; conditions: dose 3.2 g/a, three weeks after the application
Summary of the method: as §4

posumbu knotweed [32] = assay: as above; conditions: dose 3.2 g/a, three weeks after the application
Summary of the method: as §4

transplanted rice = assay: Test Example 1: preemergence treatment under submerged conditions, effect on crop; conditions: dose 2.52 g/a
Summary of the method: as §3

SMILES	herbicidal effect, J: common ragweed (common ragweed [1])	herbicidal effect, G: water foxtail (water foxtail [2])	herbicidal effect, N: common chickweed (common chickweed [3])	herbicidal effect, A: barnyardgrass (barnyardgrass [4])	herbicidal effect, O: beadstraw (beadstraw [5])	herbicidal effect, H: Italian ryegrass (Italian ryegrass [6])	herbicidal effect, D: large crabgrass (large crabgrass [7])	herbicidal effect, I: velvetleaf (velvetleaf [8])	herbicidal effect, K: redroot pigweed (redroot pigweed [9])	herbicidal effect, L: common lambsquater (common lambsquater [10])	herbicidal effect, F: wild oat (wild oat [11])	herbicidal effect, E: giant foxtail (giant foxtail [12])	herbicidal effect, M: posumbu knotweed (posumbu knotweed [13])	A: barnyardgrass, herbicidal effect (evaluation scale 0-5) (barnyardgrass [14])	B: bulrush, herbicidal effect (evaluation scale 0-5) (bulrush [15])	C: ducksalad, herbicidal effect (evaluation scale 0-5) (ducksalad [16])	A: barnyardgrass, herbicidal effect (evaluation scale 0-5) (barnyardgrass [17])	B: bulrush, herbicidal effect (evaluation scale 0-5) (bulrush [18])	C: ducksalad, herbicidal effect (evaluation scale 0-5) (ducksalad [19])	J: common ragweed, herbicidal effect (common ragweed [20])	other results
CN1COCN(Cc2ccccc2N(C(=O)OCCCl)S(=O)(=O)C(F)(F)F)C1=O [IV-3]	0 (mortality of less than 5% (almost ineffective))	5 (mortality of 90% or above (nearly complete death))	0 (mortality of less than 5% (almost ineffective))	5 (mortality of 90% or above (nearly complete death))	0 (mortality of less than 5% (almost ineffective))	0 (mortality of less than 5% (almost ineffective))	4 (mortality of at least 70% and less than 90%)	5 (mortality of 90% or above (nearly complete death))	0 (mortality of less than 5% (almost ineffective))	0 (mortality of less than 5% (almost ineffective))	0 (mortality of less than 5% (almost ineffective))	3 (mortality of at least 40% and less than 70%)	0 (mortality of less than 5% (almost ineffective))	5 (mortality of 90% or above (nearly complete death))	5 (mortality of 90% or above (nearly complete death))	4 (mortality of at least 70% and less than 90%)	5 (mortality of 90% or above (nearly complete death))	5 (mortality of 90% or above (nearly complete death))	5 (mortality of 90% or above (nearly complete death))	1 (mortality of at least 5% and less than 20%)	G: water foxtail, herbicidal effect (water foxtail [21]): 5 (mortality of 90% or above (nearly complete death)); N: common chickweed, herbicidal effect (common chickweed [22]): 5 (mortality of 90% or above (nearly complete death)); A: barnyardgrass, herbicidal effect (barnyardgrass [23]): 4 (mortality of at least 70% and less than 90%); O: beadstraw, herbicidal effect (beadstraw [24]): 0 (mortality of less than 5% (almost ineffective)); H: Italian ryegrass, herbicidal effect (Italian ryegrass [25]): 1 (mortality of at least 5% and less than 20%); D: large crabgrass, herbicidal effect (large crabgrass [26]): 4 (mortality of at least 70% and less than 90%); I: velvetleaf, herbicidal effect (velvetleaf [27]): 3 (mortality of at least 40% and less than 70%); K: redroot pigweed, herbicidal effect (redroot pigweed [28]): 0 (mortality of less than 5% (almost ineffective)); L: common lambsquater, herbicidal effect (common lambsquater [29]): 0 (mortality of less than 5% (almost ineffective)); F: wild oat, herbicidal effect (wild oat [30]): 0 (mortality of less than 5% (almost ineffective)); E: giant foxtail, herbicidal effect (giant foxtail [31]): 3 (mortality of at least 40% and less than 70%); M: posumbu knotweed, herbicidal effect (posumbu knotweed [32]): 0 (mortality of less than 5% (almost ineffective)); a: transplanted rice, effect on crop (evaluation scale 0-5) (transplanted rice): 0 (mortality of less than 5% (almost ineffective))
CC(C)COC(=O)N(c1ccccc1CN1COCN(C)C1=O)S(=O)(=O)C(F)(F)F [IV-4]	0 (mortality of less than 5% (almost ineffective))	4 (mortality of at least 70% and less than 90%)	0 (mortality of less than 5% (almost ineffective))	4 (mortality of at least 70% and less than 90%)	0 (mortality of less than 5% (almost ineffective))	0 (mortality of less than 5% (almost ineffective))	4 (mortality of at least 70% and less than 90%)	0 (mortality of less than 5% (almost ineffective))	0 (mortality of less than 5% (almost ineffective))	0 (mortality of less than 5% (almost ineffective))	0 (mortality of less than 5% (almost ineffective))	3 (mortality of at least 40% and less than 70%)	0 (mortality of less than 5% (almost ineffective))	5 (mortality of 90% or above (nearly complete death))	5 (mortality of 90% or above (nearly complete death))	5 (mortality of 90% or above (nearly complete death))	5 (mortality of 90% or above (nearly complete death))	5 (mortality of 90% or above (nearly complete death))	4 (mortality of at least 70% and less than 90%)	0 (mortality of less than 5% (almost ineffective))	G: water foxtail, herbicidal effect (water foxtail [21]): 4 (mortality of at least 70% and less than 90%); N: common chickweed, herbicidal effect (common chickweed [22]): 3 (mortality of at least 40% and less than 70%); A: barnyardgrass, herbicidal effect (barnyardgrass [23]): 4 (mortality of at least 70% and less than 90%); O: beadstraw, herbicidal effect (beadstraw [24]): 0 (mortality of less than 5% (almost ineffective)); H: Italian ryegrass, herbicidal effect (Italian ryegrass [25]): 1 (mortality of at least 5% and less than 20%); D: large crabgrass, herbicidal effect (large crabgrass [26]): 3 (mortality of at least 40% and less than 70%); I: velvetleaf, herbicidal effect (velvetleaf [27]): 3 (mortality of at least 40% and less than 70%); K: redroot pigweed, herbicidal effect (redroot pigweed [28]): 0 (mortality of less than 5% (almost ineffective)); L: common lambsquater, herbicidal effect (common lambsquater [29]): 0 (mortality of less than 5% (almost ineffective)); F: wild oat, herbicidal effect (wild oat [30]): 0 (mortality of less than 5% (almost ineffective)); E: giant foxtail, herbicidal effect (giant foxtail [31]): 3 (mortality of at least 40% and less than 70%); M: posumbu knotweed, herbicidal effect (posumbu knotweed [32]): 0 (mortality of less than 5% (almost ineffective)); a: transplanted rice, effect on crop (evaluation scale 0-5) (transplanted rice): 0 (mortality of less than 5% (almost ineffective))

— patent publication US20120029187A1, “HALOALKYLSULFONANILIDE DERIVATIVE” (Nissan Chemical Industries, Ltd., priority 2009, published 2012)
